Source: US7250423B2, “Methods for synthesizing heterocycles and therapeutic use of the heterocycles for cancers” (priority 2001, dated 2007)

Key:
Type in all cases: cell-based, human
MCF7 (Breast) = test: 3-cell line, one dose primary anticancer assay (NCI); settings: 1.000E−04 Molar, 48 hours, percent of growth vs untreated control cells; negative numbers indicate cell kill
Protocol: (§1) The following cell culture tests were performed by the National Cancer Institute of the National Institute of Health. The compounds listed below have been evaluated in the 3-cell line, one dose primary anticancer assay. The compounds which pass our criteria for activity in this assay will be scheduled automatically for evaluation against the full panel of 60 tumor cell lines. For the past 10 years, the Development Therapeutic Program (DTP), Division of Cancer Treatment and Diagnosis (DCTD), National Cancer Institute (NCI) has used an in vitro model consisting of 60 human tumor cell lines as the primary anticancer screen [Ref: J. Natl, Cancer Inst., 83:757-766, 1991].
(§2) 95% of the actives from the 60 cell line screen can be identified using only three cell lines. For this reason, the DTP has now begun using, as its primary anticancer assay, a 3-cell line panel consisting of the MCF7 (Breast), NCI-H460 (Lung), and SF-268 (CNS). This 3-cell line, one-dose assay has been in use by DTP for several years for the evaluation of combinatorial libraries and has proven to be an effective pre-screen.
(§3) In the current protocol, each cell line is inoculated and preincubated on a microtiter plate. Test agents are then added at a single concentration and the culture incubated for 48 hours. End-point determinations are made with alamar blue (Biotechniques 21(5) 780-782 (1996)). Results for each test agent are reported as the percent of growth of the treated cells when compared to the untreated control cells. Compounds which reduce the growth of any one of the cell lines to approximately 32% or less (negative numbers indicate cell kill) are passed on for evaluation in the full panel of 60 cell lines over a 5-log dose range.

[1] = system: NCI-H460 (Non Small Cell Lung); test: as above; settings: 1.000E−04 Molar, 48 hours, percent of growth vs untreated control cells; negative numbers indicate cell kill
Protocol: as §1, §2, §3

SF-268 (CNS) = test: as above; settings: 1.000E−04 Molar, 48 hours, percent of growth vs untreated control cells; negative numbers indicate cell kill
Protocol: as §1, §2, §3

SF-539 (CNS cancer) = test: 60 cell-line tests; settings: even at 1.000E-08 molar concentration
Protocol: as §1, §3

PC-3 (prostate cancer) = test: 60 cell-line tests
Protocol: as §1, §3

Delta cancer cell lines = test: 60 cell-line tests
Protocol: as §1, §3

[2] = system: MDA-MB-435 (breast cancer); test: 60 cell-line tests; settings: even at 1.000E-08 molar concentration
Protocol: as §1, §3

DU-145 (prostate cancer) = test: 60 cell-line tests; settings: even at 1.000E-08 molar concentration
Protocol: as §1, §3

[3] = system: EKVX (non-small cell lung cancer); test: 60 cell-line tests; settings: even at 1.000E-08 molar concentration
Protocol: as §1, §3

other cell lines = test: 60 cell-line tests; settings: other cell lines of the 60 cell-line panel
Protocol: as §1, §3

CAKI-1 (renal cancer) = test: 60 cell-line tests
Protocol: as §1, §3

[4] = system: CCRF-CEM (and other leukemia cancer cells); test: 60 cell-line tests
Protocol: as §1, §3

HCT (colon cancer) = test: 60 cell-line tests
Protocol: as §1, §3

[5] = system: NCI-H522 (non-samll cell lung cancer); test: 60 cell-line tests
Protocol: as §1, §3

Compound | Growth Percentage (Breast) MCF7 (MCF7 (Breast)) | Growth Percentage (Non Small Cell Lung) NCI-H460 [1] | Growth Percentage (CNS) SF-268 (SF-268 (CNS)) | killing of cancer cells (SF-539 (CNS cancer)) | killing of cancer cells (PC-3 (prostate cancer); even at 1.000E-08 molar concentration) | killing of cancer cells (Delta cancer cell lines; Delta cancer cell lines, even at 1.000E-08 molar concentration) | killing of cancer cells [2] | killing of cancer cells (DU-145 (prostate cancer)) | killing of cancer cells [3] | effect against other cell lines (other cell lines) | selectivity for cancer cells (PC-3 (prostate cancer)) | selectivity for cancer cells (CAKI-1 (renal cancer)) | selectivity for cancer cells (Delta cancer cell lines; Delta cancer) | selectivity for cancer cells [4] | selectivity for cancer cells (HCT (colon cancer)) | selectivity for cancer cells [5]
6,6a,7,8-tetrahydro-7-(2-o-hydroxyphenyl)ethyl-2H-benzopyrano[3,2-a]quinoline [4-1] | 0% | 0% | 0% | – | – | – | – | – | – | – | – | – | – | – | – | –
OCCCCC1Nc2ccc(Nc3ccccc3)cc2C2OCCCC12 (stereo not shown) [3-1, 3,4,4a,5,6,10b-hexahydro-5-(4-hydroxybutyl)-9-phenylamino-2H-pyrano[3,2-c]quinoline] | −1% | −1% | −1% | highly potent and selectively killed | highly potent and selectively killed | highly potent and selectively killed | highly potent and selectively killed | highly potent and selectively killed | highly potent and selectively killed | very week effect | – | – | – | – | – | –
OCCCC1Nc2ccc(Nc3ccccc3)cc2C2OCCC12 (stereo not shown) [3-2, 2,3,3a,4,5,9b-hexahydro-4-(3-hydroxypropyl)-8-phenylamino-furano[3,2-c]quinoline] | 0% | 57% | 22% | – | – | – | – | – | – | – | – | – | – | – | – | –
CN(C)c1ccc2c(c1)C1OCCC1C(CCCO)N2 (stereo not shown) [3-3, 2,3,3a,4,5,9b-hexahydro-4-(3-hydroxypropyl)-8-dimethylamino-furano[3,2-c]quinoline] | 7% | 100% | 77% | – | – | – | – | – | – | – | – | – | – | – | – | –
OCCCCC1Nc2ccc(O)cc2C2OCCCC12 (stereo not shown) [5-1, 3,4,4a,5,6,10b-hexahydro-5-(4-hydroxybutyl)-9-hydroxy-2H-pyrano[3,2-c]quinoline] | 0% | 29% | 2% | – | – | – | – | – | – | – | highly selective | moderately selective | highly selective | moderately selective | moderately selective | moderately selective
